# Experimental data: US7135336B1, “Use of Xenopus laevis oocytes a microincubators” (University of South Florida, priority 2004, dated 2006)
# Molecular target: T1, human α4/β2 nicotinic receptors (Homo sapiens, UniProt P17787+P43681)
# T1 construct: expressed in transfected cells; host or cells: Xenopus laevis oocytes injected with α4/β2 RNA (BMSC-injected and non-injected control oocytes)
# Experiment: Two electrode voltage clamp recordings of acetylcholine chloride concentration response in Xenopus laevis oocytes expressing human α4/β2 nicotinic receptors
# Type: cell-based
# Protocol: Electrophysiological Recordings. The last set of experiments was designed to investigate survival and lifespan differences between frog oocytes injected with BMSC and non-injected oocytes. Both groups were carefully maintained under the same conditions for a prolonged period of time. […] Whole cell currents were measured at room temperature, 48 hours after RNA injection.
# Finally, the last set of experiments was devoted to the study of the longevity of recipient oocytes with control test for their functional activity in the form of ability of oocytes to express α4/β2 subunits of human nicotinic receptors in their membranes 48h after RNA injection.
# [1] = BMSC injected 44 day old oocytes
# T1 sequence (P43681 29-627 limits assumed): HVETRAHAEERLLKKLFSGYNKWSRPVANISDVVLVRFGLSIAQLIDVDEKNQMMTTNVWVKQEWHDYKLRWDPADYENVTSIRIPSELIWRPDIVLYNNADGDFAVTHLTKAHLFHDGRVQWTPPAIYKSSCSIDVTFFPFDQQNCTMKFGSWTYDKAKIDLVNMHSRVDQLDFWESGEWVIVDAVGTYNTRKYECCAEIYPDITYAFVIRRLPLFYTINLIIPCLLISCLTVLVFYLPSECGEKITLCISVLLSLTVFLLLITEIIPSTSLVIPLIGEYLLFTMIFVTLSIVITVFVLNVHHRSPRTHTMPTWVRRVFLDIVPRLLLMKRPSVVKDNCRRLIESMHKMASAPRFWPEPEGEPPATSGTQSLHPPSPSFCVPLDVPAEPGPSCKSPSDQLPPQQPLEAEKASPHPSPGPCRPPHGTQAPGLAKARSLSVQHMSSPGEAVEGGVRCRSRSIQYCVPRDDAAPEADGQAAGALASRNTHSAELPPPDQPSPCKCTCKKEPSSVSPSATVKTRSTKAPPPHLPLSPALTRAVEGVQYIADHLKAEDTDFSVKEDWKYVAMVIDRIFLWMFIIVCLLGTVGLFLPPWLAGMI
# T1 sequence (P17787 26-502): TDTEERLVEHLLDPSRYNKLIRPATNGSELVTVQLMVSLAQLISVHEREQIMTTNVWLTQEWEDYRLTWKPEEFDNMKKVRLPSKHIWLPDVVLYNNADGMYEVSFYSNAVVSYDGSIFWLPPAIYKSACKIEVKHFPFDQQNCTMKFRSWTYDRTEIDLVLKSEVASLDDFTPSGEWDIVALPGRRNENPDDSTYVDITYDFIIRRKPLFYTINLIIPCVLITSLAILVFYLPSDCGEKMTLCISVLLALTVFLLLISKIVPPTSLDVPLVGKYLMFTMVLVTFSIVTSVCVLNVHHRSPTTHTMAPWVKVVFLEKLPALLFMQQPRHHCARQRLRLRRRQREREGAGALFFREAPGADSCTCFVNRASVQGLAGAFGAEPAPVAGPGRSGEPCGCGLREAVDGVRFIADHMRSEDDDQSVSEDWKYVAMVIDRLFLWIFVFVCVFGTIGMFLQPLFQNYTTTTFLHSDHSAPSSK
structure (smiles),measurement,setting,value
"CC(=O)OCC[N+](C)(C)C.[Cl-] [Ach, acetylcholine chloride]",nH1 (high-affinity Hill coefficient),[1],0.51
same,nH2 (low-affinity Hill coefficient),[1],3.0
same,"times lower concentration of agonist for 50% of Ach evoked peak current amplitude, BMSC injected vs control oocytes",high-affinity sites,2.7 times
same,"times lower concentration of Ach for 50% of peak current, BMSC injected vs control oocytes",low affinity sites,3.8 times
same,nH1 (high-affinity Hill coefficient),non-injected control oocytes,0.68
same,nH2 (low-affinity Hill coefficient),non-injected control oocytes,2.6
